Key:
[1] = system: HCV replicon (Genotype 1b); experiment: Luciferase genotype 1b replicon potency assay; format: cell-based; conditions: Hepatitis C virus, Huh-7; luciferase-reporter genotype 1b subgenomic replicon cell line (Huh7); Renilla luciferase reporter activity
Experimental: (§1) Further to the above Examples, representative compounds, prepared according to the examples were tested for potency in an HCV replicon assay (Genotype 1b) for activity against the virus (EC50) and toxicity to the cells (CC50).
Huh7 Replicon Cell Lines and Cell Culture Conditions:
(§2) A luciferase-reporter genotype 1b subgenomic replicon cell line, and a genotype 1a full-length replicon cell line were obtained from Apath, LLC, Brooklyn, N.Y.: All cell lines were passaged twice a week by splitting 4 or 6 fold. Cells were maintained in DMEM-high glucose medium (HyClone, Logan, Utah) supplemented with 9% FBS (HyClone), 2 mM glutamine (Invitrogen, Carlsbad, Calif.), 100 U/mL PenStrep (Invitrogen). Media also contained 0.25 mg/mL of the antibiotic G-418 to maintain stable expression of the replicon (Invitrogen). Incubation was performed at 37° C. in 5% CO2 atmosphere. Replicon cell lines were used until they accumulated 15-to-18 passages, after which cells were restarted from the frozen stock. Seeding cell counts were routinely determined using an automatic Cedex HiRes cell counter (Flownomics Analytical Instruments, Madison, Wis.) or manually using INCYTO C—Chip™ Disposable Hemacytometers (Fisher Scientific, Pittsburgh, Pa.).
The anti-HCV assays were done accordingly:
Luciferase Genotype 1b Replicon Potency Assay.
Replicon cells were seeded into white 96-well plates (Nunc/VWR) at a density of 2×10^4 cells/well in medium without G-418. A Stacker Multidrop Liquid Dispenser (MTX Lab Systems, Vienna, Va.) was employed to ensure uniform and fast cell seeding into multiple plates. 18-24 h after cell plating, inhibitors were added and cells were incubated for additional 24, 48, or 72 h (as indicated). Compounds were tested in triplicates and quadruplicates at 3× or 4× serial dilutions over a range of 0.0001-to-10 μM concentrations. HCV replication was monitored by Renilla luciferase reporter activity assay using Renilla luciferase reporter (Promega, Madison, Wis.) and a Veritas Luminometer (Turner Biosystems, Sunnyvale, Calif.). 50% and 90% inhibitory concentration (IC50 and IC90) values were calculated as the concentration of compound that results correspondingly in 50% and 90% decreases in the reporter expression as compared to untreated cells. The values were determined by non-linear regression (four-parameter sigmoidal curve fitting) analysis.

[2] = Cytotoxicity assay (CellTiter-Glo); format: cell-based; conditions: human, Huh7 HCV genotype 1b replicon cells; toxicity to the cells; 72 h incubation; CellTiter-Glo cell viability
Experimental: as §1, §2
The cell cytotoxicity assay data was obtained as described below:
Cells were seeded into 96-well plates at a density of 2×10^4 cells per well. 24 h after cell plating, 11 serial 2× compound dilutions, starting with 100 μM, were applied to the testing plates (3 repeats per compound dilution). Each testing plate was run with a “no-compound” control. Incubation with compounds was continued at 37° C. in a CO2 incubator for 72 h. To determine cell viability, the CellTiter-Glo® assay (Promega, Madison, Wis.) was performed according to the manufacturer's protocol. The compound concentration resulting in 50% luminescent signal was reported as the CC50 concentration.

COc1nc(N)nc2c1nc(I)n2[C@@H]1O[C@H](COP(=O)(N[C@@H](C)C(=O)OCCC(C)(C)C)N[C@@H](C)C(=O)OCCC(C)(C)C)[C@@H](O)[C@@]1(C)O [Example 22, (2S,2′S)-Bis(3,3-Dimethylbutyl) 2,2′-((((2R,3R,4R,5R)-5-(2-Amino-8-iodo-6-methoxy-9H-purin-9-yl)-3,4-dihydroxy-4-methyltetrahydrofuran-2-yl)methoxy)phosphoryl)bis(azanediyl)dipropanoate]
IC50 [1]: 72 nM | CC50 at 72 h [2]: 11 µM

COc1nc(N)nc2c1nc(I)n2[C@@H]1O[C@H](COP(=O)(N[C@@H](C)C(=O)OCC(C)(C)C)N[C@@H](C)C(=O)OCC(C)(C)C)[C@@H](O)[C@@]1(C)O [Example 23, (2S,2′S)-Neopentyl 2,2′-((((2R,3R,4R,5R)-5-(2-Amino-8-iodo-6-methoxy-9H-purin-9-yl)-3,4-dihydroxy-4-methyltetrahydrofuran-2-yl)methoxy)phosphoryl)bis(azanediyl)dipropanoate]
IC50 [1]: 110 nM | CC50 at 72 h [2]: 53 µM

COc1nc(N)nc2c1nc(Br)n2[C@@H]1O[C@H](COP(=O)(N[C@@H](C)C(=O)OCC(C)(C)C)N[C@@H](C)C(=O)OCC(C)(C)C)[C@@H](O)[C@@]1(C)O [Example 24, (2S,2′S)-Neopentyl 2,2′-((((2R,3R,4R,5R)-5-(2-Amino-8-bromo-6-methoxy-9H-purin-9-yl)-3,4-dihydroxy-4-methyltetrahydrofuran-2-yl)methoxy)phosphoryl)bis(azanediyl)dipropanoate]
IC50 [1]: > 40000 nM | CC50 at 72 h [2]: > 100 µM

COc1nc(N)nc2c1nc(Cl)n2[C@@H]1O[C@H](COP(=O)(N[C@@H](C)C(=O)OCC(C)(C)C)N[C@@H](C)C(=O)OCC(C)(C)C)[C@@H](O)[C@@]1(C)O [Example 25, (2S,2′S)-Neopentyl 2,2′-((((2R,3R,4R,5R)-5-(2-Amino-8-chloro-6-methoxy-9H-purin-9-yl)-3,4-dihydroxy-4-methyltetrahydrofuran-2-yl)methoxy)phosphoryl)bis(azanediyl)dipropanoate]
IC50 [1]: 10000 nM | CC50 at 72 h [2]: > 100 µM

COc1nc(N)nc2c1nc(I)n2[C@@H]1O[C@H](COP(=O)(N[C@@H](C)C(=O)OC2CCCCC2)N[C@@H](C)C(=O)OC2CCCCC2)[C@@H](O)[C@@]1(C)O [Example 26, (2S,2′S)-Dicyclohexyl 2,2′-((((2R,3R,4R,5R)-5-(2-Amino-8-iodo-6-methoxy-9H-purin-9-yl)-3,4-dihydroxy-4-methyltetrahydrofuran-2-yl)methoxy)phosphoryl)bis(azanediyl)dipropanoate]
IC50 [1]: 130 nM | CC50 at 72 h [2]: 54 µM
